Measurements published in patent US9545386B2, “Methods of treating infectious diseases” (SLIPPERY ROCK UNIVERSITY FOUNDATION, INC., priority 2007, dated 2017).

Experiments:
H. contortus = conditions: background statement; cited from earlier work
A. caninum = conditions: in vivo; cited from earlier work
[1] = test system: A. canimun life-cycle stages; conditions: in vitro, Wang et al. (1989), cited from earlier work
[2] = test system: Strongyloides stercoralis infective larvae; experiment: In vitro bioassay of infective larvae, immobilization and lethal doses (eosin, Probit); format: cell-based; conditions: S. stercoralis infective larvae, 48 hr in vitro; for 48 hr ID50 ± 95% confidence intervals: immobilize 50%; for 48 hr ID90 ± 95% confidence intervals: immobilize 90%; for 48 hr LD50 ± 95% confidence intervals: kill 50%; for 48 hr LD90 ± 95% confidence intervals: kill 90%
Description: (§1) Strongyloides stercoralis infective larvae were harvested from charcoal coprocultures in nematode saline solution. The larvae were supplied by the Parasitology Laboratory, Department of Pathobiology, University of Pennsylvania. The strain of larvae was a human strain of the parasitic nematode that had been maintained for over ten years in canines by daily prednisolone treatment (2 mg/kg per os, once daily. Parastrongyloides trichosuri and Ancylostoma caninum infective larvae were also supplied by the same source as for S. stercoralis. Haemonchus contortus infective larvae were harvested from charcoal coprocultures in nematode saline solution prepared from infected sheep feces obtained from Merck Parasites Laboratory.
(§2) The 24 hr 50% and 90% immobilization doses (ID50 and ID90), and 50% and 90% lethal doses (LD50 and LD90) of eryngial (mg/ml) were investigated in vitro using infective larvae of all four parasitic nematodes. Each species was exposed to a range of eryngial dilutions by adding known volumes of a homogeneous ‘wormy’ solution (infective larvae in nematode saline solution) to known volumes of an eryngial stock suspension (10 mg/ml of nematode saline solution). Each dilution, including the control (0 mg/ml eryngial), was prepared in triplicate and also contained eosin (0.01%, w/v), which was used as an indicator of mortality, and Triton X-100 (1.0%, v/v).
(§3) Using S. stercoralis, P. trichosuri, H. contortus and A. caninum infective larvae, eryngial dilutions, excluding the controls, ranged from 0.05 to 1.15 mg/ml; 0.01 to 1.0 mg/ml; 0.5 to 2.0 mg/ml; and 0.8 to 3.0 mg/ml, respectively. Sub-sample (10 μl) counts of larvae that were mobile, immobile but not stained and stained, were done at the start of each bioassay and at 24 hr intervals for two days. Each sub-sample contained approximately 50 infective larvae.
(§4) The 48-hr immobilization doses (ID50 and ID90) and lethal doses (LD50 and LD90) of eryngial and ivermectin also were investigated, using S. stercoralis and H. contortus infective larvae. Each bioassay was conducted as described hereinabove. Using S. stercoralis and H. contortus infective larvae, ivermectin dilutions (not including the controls) ranged from 0.03 to 0.3 mg/ml and from 0.009 to 0.1 mg/ml, respectively.
(§5) Probit analysis was used to determine 24 hr and 48 hr immobilization and lethal doses for eryngial and ivermectin, respectively.

[3] = test system: Haemonchus contortus infective larvae; experiment: as above; format: cell-based; conditions: H. contortus infective larvae; for 48 hr ID50 ± 95% confidence intervals: immobilize 50%; for 48 hr ID50 ± 95% confidence intervals / 48 hr ID90 ± 95% confidence intervals / 48 hr LD50 ± 95% confidence intervals / 48 hr LD90 ± 95% confidence intervals: 48 hr in vitro; for 48 hr ID90 ± 95% confidence intervals: immobilize 90%; for 48 hr LD50 ± 95% confidence intervals: kill 50%; for 48 hr LD90 ± 95% confidence intervals: kill 90%
Description: as §1, §2, §3, §4, §5

P. trichosuri = conditions: doramectin 0.6 mg/kg, in vivo, p<0.05, Ralston et al. (2001); cited from earlier work

For `CCCSc1ccc2nc(NC(=O)OC)[nH]c2c1` [Albendazole, albendazole], the “efficacy rates against H. contortus infections” value (H. contortus) is listed as 100%.
In the case of ivermectin [reference compound], the “effectiveness in infected dogs” value (A. caninum) is listed as “clearing the infection completely”, the “dose that killed L3 larvae” value ([1]; A. caninum L3 larvae) is listed as 2.5 mg/mL and the “dose that killed adult worms” value ([1]; A. caninum adult worms) is listed as 560 mg/mL. The “dose detrimental to eggs inside the uterine tissue of female worms” value ([1]; A. caninum eggs) was 1000 mg/mL, the “48 hr ID50 ± 95% confidence intervals” value [2] was 0.136 (0.114-0.157) mg/ml and the “48 hr ID50 ± 95% confidence intervals” value ([2]; listed as ivermectin) was 0.136 mg/mL. The “48 hr ID90 ± 95% confidence intervals” value [2] was 0.297 (0.251-0.377) mg/ml, the “48 hr ID90 ± 95% confidence intervals” value ([2]; listed as ivermectin) was 0.297 mg/mL and the “48 hr LD50 ± 95% confidence intervals” value [2] was 0.306 (0.203-0.442) mg/ml. The “48 hr LD50 ± 95% confidence intervals” value ([2]; listed as ivermectin) was 0.306 mg/mL, the “48 hr LD90 ± 95% confidence intervals” value [2] was 1.038 (0.665-2.498) mg/ml and the “48 hr LD90 ± 95% confidence intervals” value ([2]; listed as ivermectin) was 1.038 mg/mL. The “48 hr ID50 ± 95% confidence intervals” value [3] was 0.011 (0.001-0.022) mg/ml, the “48 hr ID50 ± 95% confidence intervals” value ([3]; listed as ivermectin) was 0.011 mg/mL and the “48 hr ID90 ± 95% confidence intervals” value [3] was 0.059 (0.043-0.092) mg/ml. For the same compound, the “48 hr ID90 ± 95% confidence intervals” value ([3]; listed as ivermectin) was 0.059 mg/mL, the “times greater in potency than eryngial (48 hr ID90)” value ([3]; ivermectin vs eryngial) was 12.9 times and the “times more effective than eryngial at immobilizing (48 hr ID50)” value ([3]; ivermectin vs eryngial) was 28.5 times. The “48 hr LD50 ± 95% confidence intervals” value [3] was 4.990 (4.572-5.954) mg/ml, the “48 hr LD50 ± 95% confidence intervals” value ([3]; listed as ivermectin) was 4.990 mg/mL and the “48 hr LD90 ± 95% confidence intervals” value [3] was 6.949 (5.858-10.10) mg/ml. For the same compound, the “48 hr LD90 ± 95% confidence intervals” value ([3]; listed as ivermectin) was 6.949 mg/mL.
In the case of `c1ccc(C2CN3CCSC3=N2)cc1` (stereo not shown) [tetramisole], the “efficacy rates against H. contortus infections” value (H. contortus) is listed as 100%.
For `CO[C@H]1C[C@H](O[C@H]2[C@H](C)O[C@@H](O[C@@H]3/C(C)=C/C[C@@H]4C[C@@H](C[C@]5(C=C[C@H](C)[C@@H](C6CCCCC6)O5)O4)OC(=O)[C@@H]4C=C(C)[C@@H](O)[C@H]5OC/C(=C\C=C\[C@@H]3C)[C@]54O)C[C@@H]2OC)O[C@@H](C)[C@@H]1O` [doramectin], the “reduction of P. trichosuri infection in possums” value (P. trichosuri) is listed as 99%.
